According to US20230391752A1, “PYRROLIDINE-3-CARBOXAMIDE DERIVATIVES AND RELATED USES” (Chulalongkorn University, priority 2020, published 2023):

Each molecule was assayed on HBV (assay: In vitro anti-HBV activity in HepG2.2.15 cell line (intracellular HBV DNA by qPCR at 1 μM)). Conditions: Hepatitis B virus, 144 h; HepG2.2.15 cells, 1 μM compound, 6 days, intracellular HBV DNA as percentage compared to vehicle control (0.5% DMSO).
Assay type: cell-based
Procedure, shortened: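 HepG2.2.15 cells given compound at 1 μM (0.5% DMSO final) for 3 days, then fresh compound-containing medium for 3 more days. After 6 days intracellular HBV DNA measured by qPCR. Expressed as % of 0.5% DMSO vehicle control and binned into letter ranges.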

SMILES | activity at 1 µM [%]
Cc1ncnc(C)c1-c1ccc2c(Cl)c(C(=O)N3CC[C@H](C(=O)NCc4cnc(Cl)s4)C3)[nH]c2c1 [Example 136, (S)-1-(3-chloro-6-(4,6-dimethylpyrimidin-5-yl)-1H-indole-2-carbonyl)-N-((2-chlorothiazol-5-yl)methyl)pyrrolidine-3-carboxamide] | > 90
Cc1ncnc(C)c1-c1cccc2c(Cl)c(C(=O)N3CC[C@H](C(=O)Nc4ccc(F)c(C#N)c4)C3)[nH]c12 [Example 137, (S)-1-(3-chloro-7-(4,6-dimethylpyrimidin-5-yl)-1H-indole-2-carbonyl)-N-(3-cyano-4-fluorophenyl)pyrrolidine-3-carboxamide] | 45 to 60
O=C(Nc1cc(F)c(F)c(F)c1)[C@H]1CCN(C(=O)c2[nH]c3ccccc3c2-c2cn[nH]c2)C1 [Example 140, (S)-1-(3-(1H-pyrazol-4-yl)-1H-indole-2-carbonyl)-N-(3,4,5-trifluorophenyl)pyrrolidine-3-carboxamide] | > 90
O=C(c1cccnc1)c1ccc(C(=O)N2CC[C@H](C(=O)Nc3cc(F)c(F)c(F)c3)C2)[nH]1 [Example 142] | > 90
O=C(Nc1cc(F)c(F)c(F)c1)[C@H]1CCN(C(=O)c2ccc(Cc3cccnc3)[nH]2)C1 [Example 143, (S)-1-(5-(pyridin-3-ylmethyl)-1H-pyrrole-2-carbonyl)-N-(3,4,5-trifluorophenyl)pyrrolidine-3-carboxamide] | > 90
Cc1ncccc1C(=O)c1ccc(C(=O)N2CC[C@H](C(=O)Nc3cc(F)c(F)c(F)c3)C2)[nH]1 [Example 144, (S)-1-(5-(2-methylnicotinoyl)-1H-pyrrole-2-carbonyl)-N-(3,4,5-trifluorophenyl)pyrrolidine-3-carboxamide] | > 90
Cc1ncccc1Cc1ccc(C(=O)N2CC[C@H](C(=O)Nc3cc(F)c(F)c(F)c3)C2)[nH]1 [Example 145, (S)-1-(5-((2-methylpyridin-3-yl)methyl)-1H-pyrrole-2-carbonyl)-N-(3,4,5-trifluorophenyl)pyrrolidine-3-carboxamide] | 70 to 80
Cc1nn(C)cc1Cc1ccc(C(=O)N2CC[C@H](C(=O)Nc3cc(F)c(F)c(F)c3)C2)[nH]1 [Example 146, (S)-1-(5-((1,3-dimethyl-1H-pyrazol-4-yl)methyl)-1H-pyrrole-2-carbonyl)-N-(3,4,5-trifluorophenyl)pyrrolidine-3-carboxamide] | 70 to 80
Cc1cc(NC(=O)[C@H]2CCN(C(=O)c3ccc(-c4c(C)nn(CC(=O)O)c4C)[nH]3)[C@H]2C)ccc1F [Example 147, 2-(4-(5-((2S,3S)-3-((4-fluoro-3-methylphenyl)carbamoyl)-2-methylpyrrolidine-1-carbonyl)-1H-pyrrol-2-yl)-3,5-dimethyl-1H-pyrazol-1-yl)acetic acid] | 45 to 60
N#Cc1ncccc1-c1ccc(C(=O)N2CC[C@H](C(=O)Nc3ccc(F)c(Cl)c3)C2)[nH]1 [Example 148, (S)—N-(3-chloro-4-fluorophenyl)-1-(5-(2-cyanopyridin-3-yl)-1H-pyrrole-2-carbonyl)pyrrolidine-3-carboxamide] | 45 to 60
Cc1c(-c2ccc(C(=O)N3CC[C@H](C(=O)Nc4cc(F)c(F)c(F)c4)C3)[nH]2)c2ncccc2n1C [Example 152, (S)-1-(5-(1,2-dimethyl-1H-pyrrolo[3,2-b]pyridin-3-yl)-1H-pyrrole-2-carbonyl)-N-(3,4,5-trifluorophenyl)pyrrolidine-3-carboxamide] | > 90
Cc1c(-c2ccc(C(=O)N3CC[C@H](C(=O)Nc4cc(F)c(F)c(F)c4)C3)[nH]2)c2cccnc2n1C [Example 153, (S)-1-(5-(1,2-dimethyl-1H-pyrrolo[2,3-b]pyridin-3-yl)-1H-pyrrole-2-carbonyl)-N-(3,4,5-trifluorophenyl)pyrrolidine-3-carboxamide] | < 45
